Data published in patent publication US9283222B2 (priority 2006, dated 2016).

Molecular target: Recombinant Human Poly(ADP-Ribose) Polymerase (PARP), PARP-1 (Homo sapiens (Human), UniProt P09874)
Details: read-out: PARP-1 (Ki); Table 1; text calls the values EC50s

Recombinant Human Poly(ADP-Ribose) Polymerase (PARP), PARP-1, sequence (P09874 whole entry): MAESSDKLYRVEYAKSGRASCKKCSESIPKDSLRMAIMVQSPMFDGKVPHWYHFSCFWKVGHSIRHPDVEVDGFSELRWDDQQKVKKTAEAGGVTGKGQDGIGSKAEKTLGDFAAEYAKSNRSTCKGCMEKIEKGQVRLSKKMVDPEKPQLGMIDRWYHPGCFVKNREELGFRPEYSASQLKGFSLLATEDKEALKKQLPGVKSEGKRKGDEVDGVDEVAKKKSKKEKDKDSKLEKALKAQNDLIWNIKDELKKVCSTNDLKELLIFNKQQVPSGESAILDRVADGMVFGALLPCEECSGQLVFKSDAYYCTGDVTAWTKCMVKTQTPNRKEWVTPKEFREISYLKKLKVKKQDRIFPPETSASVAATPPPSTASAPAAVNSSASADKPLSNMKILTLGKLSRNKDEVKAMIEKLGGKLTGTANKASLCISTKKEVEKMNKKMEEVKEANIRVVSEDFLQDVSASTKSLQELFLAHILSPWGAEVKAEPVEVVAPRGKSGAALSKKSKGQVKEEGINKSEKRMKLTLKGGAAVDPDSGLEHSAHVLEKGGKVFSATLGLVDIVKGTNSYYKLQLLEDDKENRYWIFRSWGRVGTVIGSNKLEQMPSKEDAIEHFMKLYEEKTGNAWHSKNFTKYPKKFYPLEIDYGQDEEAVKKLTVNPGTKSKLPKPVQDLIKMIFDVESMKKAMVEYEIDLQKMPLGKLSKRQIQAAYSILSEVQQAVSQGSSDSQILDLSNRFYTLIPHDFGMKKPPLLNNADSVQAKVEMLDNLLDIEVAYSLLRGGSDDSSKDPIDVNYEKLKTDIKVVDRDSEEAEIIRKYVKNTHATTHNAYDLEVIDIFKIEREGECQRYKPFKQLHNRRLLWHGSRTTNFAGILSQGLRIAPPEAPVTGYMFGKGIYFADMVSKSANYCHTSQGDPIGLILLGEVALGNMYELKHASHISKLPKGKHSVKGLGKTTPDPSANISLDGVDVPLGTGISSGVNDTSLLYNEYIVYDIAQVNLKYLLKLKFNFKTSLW

Row | Ki [nM] | Compound
1 | 42 | O=C(NCC1CCCCN1)c1cccc(Cc2n[nH]c(=O)c3c2CCCC3)c1 (centres unmarked) [Example 62, 3-((4-oxo-3,4,5,6,7,8-hexahydrophthalazin-1-yl)methyl)-N-(piperidin-2-ylmethyl)benzamide]
2 | 71 | O=C(Nc1ccc(F)cc1F)Nc1cc(Cc2n[nH]c(=O)c3c2CCCC3)ccc1F [Example 541, N-(2,4-difluorophenyl)-N′-{2-fluoro-5-[(4-oxo-3,4,5,6,7,8-hexahydrophthalazin-1-yl)methyl]phenyl}urea]
3 | 1.4 | CC(C)C(=O)N1CCN(C(=O)c2cc(Cc3n[nH]c(=O)c4c3NCCC4)ccc2F)CC1 [Example 565, 8-{4-fluoro-3-[(4-isobutyrylpiperazin-1-yl)carbonyl]benzyl}-2,3,4,6-tetrahydropyrido[2,3-d]pyridazin-5(1H)-one]
4 | 1.7 | CC(C)n1c(C(F)(F)F)nc2cc(C(=O)N3CCN(C(=O)c4cc(Cc5n[nH]c(=O)c6c5NCCC6)ccc4F)CC3)ccc21 [Example 647]
5 | 1260 | CNC(=O)c1ncccc1Cc1n[nH]c(=O)c2c1CCCC2 [Example 95, N-methyl-3-((4-oxo-3,4,5,6,7,8-hexahydrophthalazin-1-yl)methyl)pyridine-2-carboxamide]
6 | 442 | CC(Cc1n[nH]c(=O)c2c1CCCC2)c1cccc(-c2cccc(C(N)=O)c2)c1 (centres unmarked) [Example 283, 3′-(1-methyl-2-(4-oxo-3,4,5,6,7,8-hexahydrophthalazin-1-yl)ethyl)-1,1′-biphenyl-3-carboxamide]
7 | 0.8 | O=C(c1cnc2ccccc2c1)N1CCN(C(=O)c2cc(Cc3n[nH]c(=O)c4c3NCCC4)ccc2F)CC1 [Example 657, 8-(4-fluoro-3-{[4-(quinolin-3-ylcarbonyl)piperazin-1-yl]carbonyl}benzyl)-2,3,4,6-tetrahydropyrido[2,3-d]pyridazin-5(1H)-one]
8 | 99 | O=C(CCc1ccc(Cl)cc1)Nc1cccc(Cc2n[nH]c(=O)c3c2CCCC3)c1 [Example 169, 3-(4-chlorophenyl)-N-(3-((4-oxo-3,4,5,6,7,8-hexahydrophthalazin-1-yl)methyl)phenyl)propanamide]
9 | 0.7 | O=C(c1ccc2nc[nH]c2c1)N1CCN(C(=O)c2cc(Cc3n[nH]c(=O)c4c3NCCC4)ccc2F)CC1 [Example 655]
10 | 198 | CCCOc1ccc(C(=O)Nc2cccc(Cc3n[nH]c(=O)c4c3CCCC4)c2)cc1 [Example 235, N-(3-((4-oxo-3,4,5,6,7,8-hexahydrophthalazin-1-yl)methyl)phenyl)-4-propoxybenzamide]
11 | 57 | O=C(Nc1cccc(Cc2n[nH]c(=O)c3c2CCCC3)c1)C1(c2ccccc2)CC1 [Example 145, N-(3-((4-oxo-3,4,5,6,7,8-hexahydrophthalazin-1-yl)methyl)phenyl)-1-phenylcyclopropanecarboxamide]
12 | 309 | Cc1ccc(Cc2n[nH]c(=O)c3c2CCCC3)cc1N [Example 281, 4-(3-amino-4-methylbenzyl)-5,6,7,8-tetrahydrophthalazin-1(2H)-one]
13 | 1590 | CCCN(CCC)[C@@H](C)C(=O)Nc1cccc(Cc2n[nH]c(=O)c3c2CCCC3)c1 [Example 158]
14 | 4 | O=C(c1cc(Cc2n[nH]c(=O)c3c2CCCC3)ccc1F)N1CCN(CCN2CCOCC2)CC1 [Example 571, 4-(4-fluoro-3-{[4-(2-morpholin-4-ylethyl)piperazin-1-yl]carbonyl}benzyl)-5,6,7,8-tetrahydrophthalazin-1(2H)-one]
15 | 41 | Cc1ccc(C(=O)Nc2cccc(Cc3n[nH]c(=O)c4c3CCCC4)c2)c(O)c1 [Example 225, 2-hydroxy-4-methyl-N-(3-((4-oxo-3,4,5,6,7,8-hexahydrophthalazin-1-yl)methyl)phenyl)benzamide]
16 | 29 | O=C(NCc1cccs1)c1cccc(Cc2n[nH]c(=O)c3c2CCCC3)c1 [Example 309, 3-((4-oxo-3,4,5,6,7,8-hexahydrophthalazin-1-yl)methyl)-N-(thien-2-ylmethyl)benzamide]

Row | Compound | Ki [nM]
17 | NCC(=O)Nc1cccc(Cc2n[nH]c(=O)c3c2CCCC3)c1 [Example 111] | 12
